This note sets out measurements from ChEMBL document CHEMBL5365406, “Inhibitors for metallo-β-lactamases from the B1 and B3 subgroups provide an avenue to combat a major mechanism of antibiotic resistance” (Bioorg Med Chem Lett, 2023).

One may read the IC50 as the concentration needed to halve the response being measured. The low end stands for inhibition by little substance, the high end for a need for much substance. A word on the inhibition: it is the share of the control response that was lost under treatment.

Calls of active or inactive are those of the source. The rule behind the calls is not given here.

The subject of series [1] is Escherichia coli. In words: Antagonistic antibacterial activity against Escherichia coli expressing NDM-1 in presence of meropenem by checkerboard sensitivity assay. The class given is functional, organism-based.
The test system of series [2] is Escherichia coli. In words: Synergistic antibacterial activity against Escherichia coli expressing NDM-1 in presence of penicillin G by checkerboard sensitivity assay. The class given is functional, organism-based.
Series [3] has as its system Escherichia coli. Briefly: Synergistic antibacterial activity against Escherichia coli expressing CphA in presence of penicillin G by checkerboard sensitivity assay. It counts as functional, organism-based.
For series [4], the target named is Metallo-beta-lactamase type 2 (Bacteria) (UniProt C7C422). Briefly: Competitive inhibition of NDM-1 (unknown origin) using penicillin G as substrate by Michaelis-Menten equation based kinetic analysis.
The target is the same in series [5]. Briefly: Uncompetitive inhibition of NDM-1 (unknown origin) using penicillin G as substrate by Michaelis-Menten equation based kinetic analysis.
Series [6] concerns Escherichia coli. Briefly: Antagonistic antibacterial activity against Escherichia coli expressing AIM-1 in presence of penicillin G by checkerboard sensitivity assay. It counts as functional, organism-based.
The nature of series [7]: Inhibition of CphA (unknown origin) using meropenem as substrate. Set-up: species or system Bacteria.
Series [8] concerns Escherichia coli. Briefly: Synergistic antibacterial activity against Escherichia coli expressing AIM-1 in presence of cefuroxime by checkerboard sensitivity assay. It counts as functional, organism-based.
Series [9] relates to Escherichia coli. In words: Synergistic antibacterial activity against Escherichia coli expressing AIM-1 in presence of meropenem by checkerboard sensitivity assay. It counts as functional, organism-based.
The test system of series [10] is Escherichia coli. In words: Synergistic antibacterial activity against Escherichia coli expressing CphA in presence of cefuroxime by checkerboard sensitivity assay. It counts as functional, organism-based.
Series [11] relates to Bacteria. In words: Inhibition of AIM-1 (unknown origin) at 10 uM relative to control.
Series [12] has as its system Escherichia coli. Briefly: Synergistic antibacterial activity against Escherichia coli expressing CphA in presence of meropenem by checkerboard sensitivity assay. The class given is functional, organism-based.
In series [13] the test system is Escherichia coli. Briefly: Synergistic antibacterial activity against Escherichia coli expressing NDM-1 in presence of cefuroxime by checkerboard sensitivity assay. It counts as functional, organism-based.
Series [14] concerns Bacteria. In words: Uncompetitive inhibition of AIM-1 (unknown origin) using cefuroxime as substrate by Michaelis-Menten equation based kinetic analysis.
The subject of series [15] is Bacteria. In words: Competitive inhibition of AIM-1 (unknown origin) using cefuroxime as substrate by Michaelis-Menten equation based kinetic analysis.
Series [16] addresses Metallo-beta-lactamase type 2 (Bacteria) (UniProt C7C422). Briefly: Inhibition of NDM-1 (unknown origin) at 10 uM relative to control.
Series [17] concerns Escherichia coli. Briefly: Antagonistic antibacterial activity against Escherichia coli expressing AIM-1 in presence of cefuroxime by checkerboard sensitivity assay. The class given is functional, organism-based.
Series [18] concerns Escherichia coli. Briefly: Antagonistic antibacterial activity against Escherichia coli expressing AIM-1 in presence of meropenem by checkerboard sensitivity assay. The class given is functional, organism-based.
Series [19] deals with Escherichia coli. Briefly: Synergistic antibacterial activity against Escherichia coli expressing AIM-1 in presence of penicillin G by checkerboard sensitivity assay. It counts as functional, organism-based.
Series [20] is described as follows: Stability of the compound in NaBH4/ethanol assessed as oxidation measured after 24 hrs at room temperature. It counts as physicochemical.

Chain of Metallo-beta-lactamase type 2 (Bacteria) (C7C422 whole entry): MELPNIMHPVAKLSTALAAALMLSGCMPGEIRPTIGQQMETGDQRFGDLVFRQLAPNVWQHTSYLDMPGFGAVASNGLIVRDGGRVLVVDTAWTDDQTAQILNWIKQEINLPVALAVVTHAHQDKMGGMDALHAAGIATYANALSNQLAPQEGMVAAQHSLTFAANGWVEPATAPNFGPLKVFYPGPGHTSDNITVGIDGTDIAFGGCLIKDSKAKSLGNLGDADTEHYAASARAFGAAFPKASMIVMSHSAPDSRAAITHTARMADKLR

Consider `N#Cc1c(-c2ccccc2)c(-c2ccccc2)n(Cc2ccccc2)c1/N=C/c1ccccc1`, for which the outcome with Escherichia coli [1], with Escherichia coli [2], in the series on Escherichia coli [3], in the series with Escherichia coli [6], in the series with Escherichia coli [8] and in the series with Escherichia coli [9] was Active. The result in the series with Escherichia coli [10], in the series on Escherichia coli [12] and in the series on Escherichia coli [13] was Active. The Kic in series [4] was found to be 3.2 µM; with Bacteria [15], 3.6 µM. Further, the Kiuc in series [5] worked out at 6 µM; in the series with Bacteria [14], 11 µM. In [7], this compound gave an IC50 of 75 µM. The values for the inhibition (in the series on Bacteria [11]; in series [16]) were 42% and 38%, respectively.
Take `N#Cc1c(-c2ccccc2)c(-c2ccccc2)n(Cc2ccccc2)c1/N=C/c1ccc(C(=O)O)cc1`: the inhibition with Bacteria [11] is 39%; in series [16], 40%.
For `N#Cc1c(-c2ccccc2)c(-c2ccccc2)n(Cc2ccccc2)c1/N=C/c1ccc2ccccc2c1` the same measures were 26% and 50%.
Consider `N#Cc1c(-c2ccccc2)c(-c2ccccc2)n(Cc2ccccc2)c1/N=C/c1cccs1`, for which the outcome with Escherichia coli [1], in the series with Escherichia coli [2], with Escherichia coli [3], in the series on Escherichia coli [6], in the series on Escherichia coli [17] and with Escherichia coli [10] was Active. The outcome with Escherichia coli [12], with Escherichia coli [13] and in the series on Escherichia coli [18] was Active. The Kic came to 1.7 µM in series [4] and 4.5 µM with Bacteria [15]. Also, the Kiuc in [5] was 11 µM; with Bacteria [14] it was 35 µM. In series [7], it took 57 µM to reach half-maximal inhibition (IC50). The figures for the inhibition (with Bacteria [11]; in [16]) were 42% and 57%, respectively.
As for `N#Cc1c(-c2ccccc2)c(-c2ccccc2)n(Cc2ccccc2)c1/N=C/c1ccc(O)cc1`, the outcome in the series on Escherichia coli [1], with Escherichia coli [2], in the series on Escherichia coli [3], in the series on Escherichia coli [6], in the series on Escherichia coli [8] and with Escherichia coli [9] was Active. The outcome in the series on Escherichia coli [10], with Escherichia coli [12] and with Escherichia coli [13] was Active. The Kic amounted to 1.3 µM in series [4] and 4.4 µM in the series on Bacteria [15]. In addition, the Kiuc in series [5] was found to be 0.9 µM; in the series with Bacteria [14] it was 4.7 µM. Also, the IC50 in series [7] was determined as 45 µM. The results for the inhibition (in the series with Bacteria [11]; in series [16]) were 61% and 49%, respectively.
As for `COC(=O)c1ccc(-c2c(C#N)c(N)n(Cc3ccccc3)c2-c2ccc(C(=O)OC)cc2)cc1`, the inhibition entry (with Bacteria [11]; in series [16]) was “inactive” throughout.
With `COC(=O)c1ccc(/C=N/c2c(C#N)c(-c3ccccc3)c(-c3ccccc3)n2Cc2ccccc2)cc1`, the Kic in [4] amounted to 34 µM; in the series on Bacteria [15] it was 6.4 µM. Also, the Kiuc in [5] stood at 4.4 µM; in the series with Bacteria [14], 72 µM. In addition, the inhibition is 19% in the series on Bacteria [11] and 27% in series [16].
As to `N#Cc1c(-c2ccccc2)c(-c2ccccc2)n(Cc2ccccc2)c1NCc1cccs1`, the values for the inhibition (in the series on Bacteria [11]; in series [16]) were 25% and 29%, respectively.
The like results for `N#Cc1c(-c2ccccn2)c(-c2ccccn2)n(Cc2ccccc2)c1N` were, in that order, “inactive” and “inactive”.
The like results for `N#Cc1c(-c2ccccc2)c(-c2ccccc2)n(Cc2ccccc2)c1/N=C/c1cccnc1` were, in that order, 11% and 28%.
The like results for `N#Cc1c(-c2ccc(C(=O)O)cc2)c(-c2ccc(C(=O)O)cc2)n(Cc2ccccc2)c1N` were, in that order, “inactive” and “inactive”.
For the compound `N#Cc1c(-c2ccccc2)c(-c2ccccc2)n(Cc2ccccc2)c1NC(=O)c1ccccc1`, the outcome with Escherichia coli [1], in the series with Escherichia coli [2], with Escherichia coli [3], in the series on Escherichia coli [17], with Escherichia coli [10] and with Escherichia coli [12] was Active. In addition, the outcome in the series on Escherichia coli [13], in the series on Escherichia coli [19] and in the series with Escherichia coli [18] was Active. In addition, the Kic in series [4] worked out at 9 µM; in the series with Bacteria [15], 11 µM. For the same compound, the Kiuc in series [5] turned out to be 5 µM; in the series on Bacteria [14], 19 µM. Besides, the inhibition with Bacteria [11] came to 42%; in series [16], 47%.
Consider `CC(=O)Nc1ccc(/C=N/c2c(C#N)c(-c3ccccc3)c(-c3ccccc3)n2Cc2ccccc2)cc1`, for which the inhibition in the series on Bacteria [11] is 10%; in series [16], 14%.
Turning to `N#Cc1c(-c2ccccc2)c(-c2ccccc2)n(Cc2ccccc2)c1/N=C/c1ccc([N+](=O)[O-])cc1`, the inhibition with Bacteria [11] is 40%; in series [16], 45%.
As to `N#Cc1c(-c2ccccc2)c(-c2ccccc2)n(Cc2ccccc2)c1NCc1ccccc1`, the Kiuc in series [5] stood at 2.7 µM. Besides, the inhibition in the series on Bacteria [11] is 32%; in [16], 41%. The Stability entry in series [20] was “Stable”.
